The source of these data is patent US11241410B2, “Method and compound for the treatment of covid-19” (priority 2020, dated 2022).

Structures are written as SMILES. pEC50: −log10 of the molar value.

The first data set concerns Huh7.
Assay: not given
The note with it: Huh7, 4 days, CellTiter Glo, reference compound; cited from earlier work.
As to `CCN(CC)CCCC(C)Nc1ccnc2cc(Cl)ccc12` (centres unmarked) [Chloroquine phosphate], the CC50 is 40.8 µM.

Consider `CCC(CC)COC(=O)[C@H](C)N[P@](=O)(OC[C@H]1O[C@@](C#N)(c2ccc3c(N)ncnn23)[C@H](O)[C@@H]1O)Oc1ccccc1` [Remdesivir], for which the CC50 is 28.9 µM.

Another data set has as its target T1, SARS-CoV-2 main protease (Severe acute respiratory syndrome coronavirus 2, UniProt P0DTD1).
T1 construct: also MProtease (SARS-CoV-2 main protease)
Assay: not given
Conditions: auto dock; cited from earlier work.
In the case of `CC(C)c1nc(CN(C)C(=O)N[C@H](C(=O)N[C@@H](Cc2ccccc2)C[C@H](O)[C@H](Cc2ccccc2)NC(=O)OCc2cncs2)C(C)C)cs1` [Ritonavir], the “Dissociation Constant” value is 2.5E−06, the SMINA score is −7.7 and the Vina score was −7.5.

With `CCN(CC)CCCC(C)Nc1ccnc2cc(Cl)ccc12` (centres unmarked) [Chloroquine], the “Dissociation Constant” value is listed as 5.0E−05, the SMINA score was −5.4 and the Vina score is recorded as −5.9.

For the compound `CCOC(=O)c1c(CSc2ccccc2)n(C)c2cc(Br)c(O)c(CN(C)C)c12` [Umifenovir], the “Dissociation Constant” value is reported as 2.2E−05, the SMINA score is listed as −6.0 and the Vina score was −6.4.

Turning to `CCN(CCO)CCCC(C)Nc1ccnc2cc(Cl)ccc12` (centres unmarked) [Hydroxychloroquine], the “Dissociation Constant” value is on record as 2.3E−05, the SMINA score was −6.4 and the Vina score is recorded as −6.0.

For `Cc1cccc(C)c1OCC(=O)N[C@@H](Cc1ccccc1)[C@@H](O)C[C@H](Cc1ccccc1)NC(=O)[C@H](C(C)C)N1CCCNC1=O` [Lopinavir], the “Dissociation Constant” value is reported as 3.4E−06, the SMINA score is listed as −7.5 and the Vina score is on record as −7.4.

Take `CCOC(=O)C1=C[C@@H](OC(CC)CC)[C@H](NC(C)=O)[C@@H](N)C1` [Oseltamivir]: the “Dissociation Constant” value is recorded as 1.8E−05, the SMINA score is listed as −6.3 and the Vina score is −6.5.

As to `CC(C)c1nc(CN(C)C(=O)N[C@@H](CCN2CCOCC2)C(=O)N[C@H](CC[C@H](Cc2ccccc2)NC(=O)OCc2cncs2)Cc2ccccc2)cs1` [Cobicistat], the “Dissociation Constant” value is listed as 5.7E−06, the SMINA score is on record as −7.2 and the Vina score is −7.2.

For a further data set, the system named is COVID-19.
Assay: not given
The note with it: after one month; control arm 12.8%, difference not statistically significant; cited from earlier work.
On to `CCC(CC)COC(=O)[C@H](C)N[P@](=O)(OC[C@H]1O[C@@](C#N)(c2ccc3c(N)ncnn23)[C@H](O)[C@@H]1O)Oc1ccccc1` [Remdesivir], for which the “patients who had died” value was 13.9%.

For a further data set, the system named is HIV. Briefly: HIV in vitro tests (Table 1). The class given is cell-based. The note with it: HIV in vitro tests; read-out: EC50.
For `CC(C)(C)NC(=O)[C@@H]1C[C@@H]2CCCC[C@@H]2CN1C[C@@H](O)[C@H](Cc1ccccc1)NC(=O)[C@H](CC(N)=O)NC(=O)c1ccc2ccccc2n1` [Saquinovir], the pEC50 was 8.92.

On to `O=c1[nH]cnc2c1ncn2[C@H]1CC[C@@H](CO)O1` [ddI], for which the negative logarithm of the EC50 (pEC50) is 8.25.

As to `Cc1ccnc2c1NC(=O)c1cccnc1N2C1CC1` [Neverepin], the pEC50 was 7.32.

For `CC(C)(C)NC(=O)[C@@H]1CN(Cc2cccnc2)CCN1C[C@@H](O)C[C@@H](Cc1ccccc1)C(=O)N[C@H]1c2ccccc2C[C@H]1O` [Indinivir], the negative-log EC50 (pEC50) is 8.30.

As to `Nc1ccn([C@H]2CC[C@@H](CO)O2)c(=O)n1` [ddc], the pEC50 was 9.00.

As for `CC(C)c1nc(CN(C)C(=O)N[C@H](C(=O)N[C@@H](Cc2ccccc2)C[C@H](O)[C@H](Cc2ccccc2)NC(=O)OCc2cncs2)C(C)C)cs1` [Retinovir], the negative logarithm of the EC50 (pEC50) is 8.70.

The target of the next data set is T2, Mpro (Severe acute respiratory syndrome coronavirus 2, UniProt P0DTD1).
T2 construct: also MProtease (SARS-CoV-2 main protease)
Assay: not given
Conditions: Mpro and substrate, 40 min, 384 well; cited from earlier work.
As to `Cc1cccc(C)c1OCC(=O)N[C@@H](Cc1ccccc1)[C@@H](O)C[C@H](Cc1ccccc1)NC(=O)[C@H](C(C)C)N1CCCNC1=O` [Lopinavir], the pEC50 is 3.97.

The test system of the next data set is HCoV.
Assay: not given
Conditions: Huh7, 4 days, 96 well, reference compound; cited from earlier work.
`CCN(CC)CCCC(C)Nc1ccnc2cc(Cl)ccc12` (centres unmarked) [Chloroquine phosphate]: the negative logarithm of the EC50 (pEC50) is 5.46.
